# Experimental data from ChEMBL document CHEMBL1140084, “Discovery and evaluation of 4-(2-(4-chloro-1H-pyrazol-1-yl)ethylamino)-3-(6-(1-(3-fluoropropyl)piperidin-4-yl)-4-methyl-1H-benzo[d]imidazol-2-yl)pyridin-2(1H)-one (BMS-695735), an orally efficacious inhibitor of insulin-like growth factor-1 receptor kinase with broad spectrum in vivo antitumor …” (J Med Chem, 2008).
# pIC50: −log10 of the molar value. Activity calls are given as the source filed them. The rule behind the calls is not given here.
# What was measured:
# [1] = Antiproliferative activity against transgenic mouse SAL cells overexpressing human IGF1R assessed as [3H]thymidine incorporation after 72 hrs
# Cytochrome P450 3A4 = Cytochrome P450 3A4 (Homo sapiens, UniProt P08684); experiment: Inhibition of human recombinant CYP3A4 in human liver microsomes using BFC as a substrate
# [2] = biological target: T1, Nuclear receptor subfamily 1 group I member 2 (Homo sapiens, UniProt O75469); experiment: Induction of PXR transactivation
# T1 sequence (O75469 whole entry): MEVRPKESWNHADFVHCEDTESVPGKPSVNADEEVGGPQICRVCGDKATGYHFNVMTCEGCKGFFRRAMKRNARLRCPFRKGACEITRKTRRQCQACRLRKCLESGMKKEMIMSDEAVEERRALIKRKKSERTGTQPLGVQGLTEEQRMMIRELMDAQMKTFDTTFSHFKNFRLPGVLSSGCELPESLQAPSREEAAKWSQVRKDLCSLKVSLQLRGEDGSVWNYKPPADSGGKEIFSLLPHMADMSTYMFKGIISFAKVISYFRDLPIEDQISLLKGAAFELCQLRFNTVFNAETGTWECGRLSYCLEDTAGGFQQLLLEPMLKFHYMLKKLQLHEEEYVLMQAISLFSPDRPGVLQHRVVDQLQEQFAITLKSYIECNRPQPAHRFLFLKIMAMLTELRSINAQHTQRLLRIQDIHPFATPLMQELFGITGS
# [3] = AUC in mouse at 20 mg/kg after 4 hrs; assay type: ADME, organism-based; parameters: time < 4 hr, dose 20 mg/kg; conditions: plasma
# Mus musculus [4] = experiment: Induction of glucose homeostasis in mouse assessed as glucose elevation at 50 mg/kg after glucose challenge by OGTT; assay type: functional, organism-based; parameters: dose 50 mg/kg
# Mus musculus [5] = experiment: Induction of glucose homeostasis in mouse assessed as glucose elevation at 100 mg/kg after glucose challenge by OGTT; assay type: functional, organism-based; parameters: dose 100 mg/kg
# [6] = Antitumor activity against mouse IGFSal cell xenografted nu/nu athymic mouse at 50 mg/kg, po bid for 5 days; assay type: functional; conditions: 120 h, read-out: TGI
# [7] = biological target: Tyrosine-protein kinase ITK/TSK (Homo sapiens, UniProt Q08881); experiment: Inhibition of GST-tagged Emt
# [8] = biological target: Insulin-like growth factor 1 receptor (Homo sapiens, UniProt P08069); experiment: Inhibition of human IGF1R expressed in transgenic mouse IGFSal cells; assay type: cell-based
# [9] = Protein binding in mouse plasma at 10 uM by equilibrium dialysis; assay type: ADME, cell-free; conditions: read-out: PPB (converted)
# [10] = Oral bioavailability in mouse at 50 mg/kg; assay type: ADME, organism-based; conditions: in vivo
# [11] = Cmax in mouse at 50 mg/kg, po; assay type: ADME, organism-based; parameters: dose 50 mg/kg, route oral; conditions: in vivo
# [12] = Total clearance in mouse at 5 mg/kg, iv and 50 mg/kg, po; assay type: ADME, organism-based; conditions: in vivo
# [13] = Volume of distribution at steady state in mouse at 5 mg/kg, iv and 50 mg/kg, po; assay type: ADME, organism-based; conditions: in vivo, read-out: Vdss
# [14] = Half life in mouse at 5 mg/kg, iv and 50 mg/kg, po; assay type: ADME, organism-based; conditions: in vivo
# [15] = Oral bioavailability in rat at 10 mg/kg; assay type: ADME, organism-based; conditions: in vivo
# [16] = Cmax in rat at 10 mg/kg, po; assay type: ADME, organism-based; parameters: dose 10 mg/kg, route oral; conditions: in vivo
# [17] = Total clearance in rat at 2 mg/kg, iv and 10 mg/kg, po; assay type: ADME, organism-based; conditions: in vivo
# [18] = Volume of distribution at steady state in rat at 2 mg/kg, iv and 10 mg/kg, po; assay type: ADME, organism-based; conditions: in vivo, read-out: Vdss
# [19] = Half life in rat at 2 mg/kg, iv and 10 mg/kg, po; assay type: ADME, organism-based; conditions: in vivo
# [20] = Oral bioavailability in dog at 10 mg/kg; assay type: ADME, organism-based, Canis lupus familiaris; conditions: in vivo
# [21] = Cmax in dog at 10 mg/kg, po; assay type: ADME, organism-based, Canis lupus familiaris; parameters: dose 10 mg/kg, route oral; conditions: in vivo
# [22] = Total clearance in dog at 2 mg/kg, iv and 10 mg/kg, po; assay type: ADME, organism-based, Canis lupus familiaris; conditions: in vivo
# [23] = Volume of distribution at steady state in dog at 2 mg/kg, iv and 10 mg/kg, po; assay type: ADME, organism-based, Canis lupus familiaris; conditions: in vivo, read-out: Vdss
# [24] = Half life in dog at 2 mg/kg, iv and 10 mg/kg, po; assay type: ADME, organism-based, Canis lupus familiaris; conditions: in vivo
# [25] = Oral bioavailability in monkey at 10 mg/kg; assay type: ADME, organism-based, Macaca mulatta; conditions: rhesus monkey, in vivo
# [26] = Cmax in monkey at 10 mg/kg, po; assay type: ADME, organism-based, Macaca mulatta; parameters: dose 10 mg/kg, route oral; conditions: rhesus monkey, in vivo
# [27] = Total clearance in monkey at 2 mg/kg, iv and 10 mg/kg, po; assay type: ADME, organism-based, Macaca mulatta; conditions: rhesus monkey, in vivo
# [28] = Volume of distribution at steady state in monkey at 2 mg/kg, iv and 10 mg/kg, po; assay type: ADME, organism-based, Macaca mulatta; conditions: rhesus monkey, in vivo, read-out: Vdss
# [29] = Half life in monkey at 2 mg/kg, iv and 10 mg/kg, po; assay type: ADME, organism-based, Macaca mulatta; conditions: rhesus monkey, in vivo
# [30] = Inhibition of IRK
# [31] = biological target: Protein kinase C alpha type (Homo sapiens, UniProt P17252); experiment: Inhibition of PKCalpha
# [32] = biological target: Protein kinase C delta type (Homo sapiens, UniProt Q05655); experiment: Inhibition of PKCdelta
# [33] = biological target: cAMP-dependent protein kinase catalytic subunit beta (Homo sapiens, UniProt P22694); experiment: Inhibition of PKA-B
# [34] = Inhibition of GST-tagged IKK
# [35] = biological target: RAC-alpha serine/threonine-protein kinase (Homo sapiens, UniProt P31749); experiment: Inhibition of AKT
# [36] = biological target: Mitogen-activated protein kinase 14 (Homo sapiens, UniProt Q16539); experiment: Inhibition of p38alpha
# [37] = biological target: MAP kinase-activated protein kinase 2 (Homo sapiens, UniProt P49137); experiment: Inhibition of MK2
# [38] = biological target: Vascular endothelial growth factor receptor 2 (Homo sapiens, UniProt P35968); experiment: Inhibition of GST-tagged KDR
# [39] = biological target: Fibroblast growth factor receptor 1 (Homo sapiens, UniProt P11362); experiment: Inhibition of human recombinant FGFR1
# [40] = biological target: Epidermal growth factor receptor (Homo sapiens, UniProt P00533); experiment: Inhibition of GST-tagged HER1
# [41] = biological target: Receptor tyrosine-protein kinase erbB-2 (Homo sapiens, UniProt P04626); experiment: Inhibition of GST-tagged HER2
# [42] = biological target: Hepatocyte growth factor receptor (Homo sapiens, UniProt P08581); experiment: Inhibition of GST-tagged Met
# [43] = Inhibition of His-tagged GSK3
# Phosphodiesterase 4 = Phosphodiesterase 4 (Homo sapiens, UniProt P27815+Q08499+Q07343+Q08493); experiment: Inhibition of human PDE4 in U937 cells; assay type: cell-based; conditions: u-937
# COLO 205 = experiment: Antitumor activity against human Colo205 cell xenografted nu/nu athymic mouse at 100 mg/kg, po bid for 21 days; assay type: functional; conditions: COLO 205, 504 h, read-out: TGI
# [44] = Antitumor activity against human JJN3 cell xenografted nu/nu athymic mouse at 100 mg/kg, po bid for 21 days; assay type: functional; conditions: JJN-3, 504 h, read-out: TGI
# [45] = Antitumor activity against human Geo cell xenografted nu/nu athymic mouse at 100 mg/kg, po bid for 21 days; assay type: functional; conditions: 504 h, read-out: TGI
# Cytochrome P450 1A2 = Cytochrome P450 1A2 (Homo sapiens, UniProt P05177); experiment: Inhibition of human recombinant CYP1A2 in human liver microsomes; assay type: ADME, Microsome
# Cytochrome P450 2C9 = Cytochrome P450 2C9 (Homo sapiens, UniProt P11712); experiment: Inhibition of human recombinant CYP2C9 in human liver microsomes; assay type: ADME, Microsome
# Cytochrome P450 2C19 = Cytochrome P450 2C19 (Homo sapiens, UniProt P33261); experiment: Inhibition of human recombinant CYP2C19 in human liver microsomes; assay type: ADME, Microsome
# Cytochrome P450 2D6 = Cytochrome P450 2D6 (Homo sapiens, UniProt P10635); experiment: Inhibition of human recombinant CYP2D6 in human liver microsomes; assay type: ADME, Microsome
# [46] = Apparent permeability across human CaCo2 cells; assay type: ADME, cell-based; conditions: Caco-2
# [47] = Aqueous solubility of the compound; assay type: physicochemical; conditions: buffer
# Hepatocyte = experiment: Cytotoxicity against human hepatocytes; assay type: cell-based
# Mus musculus [48] = experiment: Induction of glucose homeostasis in mouse assessed as glucose elevation at 50 to 100 mg/kg prior to glucose challenge by OGTT; assay type: functional, organism-based
# Focal adhesion kinase 1 = Focal adhesion kinase 1 (Homo sapiens, UniProt Q05397)
# Sequence of Cytochrome P450 3A4 (P08684 whole entry): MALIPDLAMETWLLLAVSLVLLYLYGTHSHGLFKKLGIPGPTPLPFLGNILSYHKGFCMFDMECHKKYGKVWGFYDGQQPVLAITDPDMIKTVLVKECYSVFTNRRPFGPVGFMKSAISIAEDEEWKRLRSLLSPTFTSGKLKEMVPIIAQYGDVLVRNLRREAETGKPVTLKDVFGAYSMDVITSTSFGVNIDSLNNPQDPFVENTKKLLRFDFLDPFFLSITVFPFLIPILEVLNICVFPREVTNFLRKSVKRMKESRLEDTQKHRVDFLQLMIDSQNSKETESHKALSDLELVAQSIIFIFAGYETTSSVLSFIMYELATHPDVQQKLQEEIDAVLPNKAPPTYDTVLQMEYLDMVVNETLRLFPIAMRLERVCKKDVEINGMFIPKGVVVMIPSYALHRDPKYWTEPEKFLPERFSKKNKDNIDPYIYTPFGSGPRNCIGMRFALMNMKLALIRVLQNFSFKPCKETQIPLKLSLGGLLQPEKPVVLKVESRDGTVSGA
# Sequence of Receptor tyrosine-protein kinase erbB-2 (P04626 whole entry): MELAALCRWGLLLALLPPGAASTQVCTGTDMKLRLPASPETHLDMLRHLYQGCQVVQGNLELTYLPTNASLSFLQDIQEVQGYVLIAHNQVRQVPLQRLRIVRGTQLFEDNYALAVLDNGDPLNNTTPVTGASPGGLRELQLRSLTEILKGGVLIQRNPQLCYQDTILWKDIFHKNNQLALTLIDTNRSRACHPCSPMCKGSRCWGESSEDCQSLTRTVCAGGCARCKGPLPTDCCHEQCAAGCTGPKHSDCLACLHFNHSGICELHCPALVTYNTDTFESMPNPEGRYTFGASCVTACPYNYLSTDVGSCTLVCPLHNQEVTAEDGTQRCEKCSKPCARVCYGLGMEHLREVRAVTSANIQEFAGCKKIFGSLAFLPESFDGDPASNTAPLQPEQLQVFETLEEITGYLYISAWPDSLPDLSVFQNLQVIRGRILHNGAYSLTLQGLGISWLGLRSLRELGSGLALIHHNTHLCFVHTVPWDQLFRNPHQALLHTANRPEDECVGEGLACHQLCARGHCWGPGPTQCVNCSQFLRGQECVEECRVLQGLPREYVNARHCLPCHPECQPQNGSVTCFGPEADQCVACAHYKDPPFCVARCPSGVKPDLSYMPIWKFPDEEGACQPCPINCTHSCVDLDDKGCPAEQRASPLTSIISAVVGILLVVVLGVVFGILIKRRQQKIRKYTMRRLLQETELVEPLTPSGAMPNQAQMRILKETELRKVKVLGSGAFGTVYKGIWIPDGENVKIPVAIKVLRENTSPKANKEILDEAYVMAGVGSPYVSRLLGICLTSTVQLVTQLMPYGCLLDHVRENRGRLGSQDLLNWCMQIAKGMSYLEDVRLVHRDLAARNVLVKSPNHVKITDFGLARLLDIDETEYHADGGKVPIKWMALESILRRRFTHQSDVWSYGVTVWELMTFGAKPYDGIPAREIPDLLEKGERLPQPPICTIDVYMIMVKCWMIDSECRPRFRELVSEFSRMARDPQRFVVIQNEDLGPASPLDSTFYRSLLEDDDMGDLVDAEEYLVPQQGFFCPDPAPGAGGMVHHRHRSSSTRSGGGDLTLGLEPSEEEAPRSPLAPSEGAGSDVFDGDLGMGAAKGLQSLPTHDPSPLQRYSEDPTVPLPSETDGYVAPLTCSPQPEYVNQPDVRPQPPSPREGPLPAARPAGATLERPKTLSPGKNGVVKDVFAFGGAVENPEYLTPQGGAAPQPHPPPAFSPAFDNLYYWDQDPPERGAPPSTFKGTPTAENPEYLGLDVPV
# Sequence of Cytochrome P450 2C19 (P33261 whole entry): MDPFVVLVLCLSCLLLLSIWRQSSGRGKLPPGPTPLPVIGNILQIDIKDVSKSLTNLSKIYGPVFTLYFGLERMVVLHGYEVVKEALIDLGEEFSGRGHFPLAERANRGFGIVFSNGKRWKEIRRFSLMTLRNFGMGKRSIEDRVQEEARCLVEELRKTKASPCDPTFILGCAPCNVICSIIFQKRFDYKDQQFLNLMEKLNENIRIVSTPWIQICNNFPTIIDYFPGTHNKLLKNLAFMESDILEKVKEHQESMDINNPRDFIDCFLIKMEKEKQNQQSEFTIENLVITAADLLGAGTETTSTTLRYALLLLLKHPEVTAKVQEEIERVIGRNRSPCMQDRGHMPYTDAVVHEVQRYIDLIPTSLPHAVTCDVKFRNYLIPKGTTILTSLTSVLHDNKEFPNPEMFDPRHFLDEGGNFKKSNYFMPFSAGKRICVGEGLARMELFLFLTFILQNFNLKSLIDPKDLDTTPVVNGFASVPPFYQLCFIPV
# Sequence of Fibroblast growth factor receptor 1 (P11362 whole entry): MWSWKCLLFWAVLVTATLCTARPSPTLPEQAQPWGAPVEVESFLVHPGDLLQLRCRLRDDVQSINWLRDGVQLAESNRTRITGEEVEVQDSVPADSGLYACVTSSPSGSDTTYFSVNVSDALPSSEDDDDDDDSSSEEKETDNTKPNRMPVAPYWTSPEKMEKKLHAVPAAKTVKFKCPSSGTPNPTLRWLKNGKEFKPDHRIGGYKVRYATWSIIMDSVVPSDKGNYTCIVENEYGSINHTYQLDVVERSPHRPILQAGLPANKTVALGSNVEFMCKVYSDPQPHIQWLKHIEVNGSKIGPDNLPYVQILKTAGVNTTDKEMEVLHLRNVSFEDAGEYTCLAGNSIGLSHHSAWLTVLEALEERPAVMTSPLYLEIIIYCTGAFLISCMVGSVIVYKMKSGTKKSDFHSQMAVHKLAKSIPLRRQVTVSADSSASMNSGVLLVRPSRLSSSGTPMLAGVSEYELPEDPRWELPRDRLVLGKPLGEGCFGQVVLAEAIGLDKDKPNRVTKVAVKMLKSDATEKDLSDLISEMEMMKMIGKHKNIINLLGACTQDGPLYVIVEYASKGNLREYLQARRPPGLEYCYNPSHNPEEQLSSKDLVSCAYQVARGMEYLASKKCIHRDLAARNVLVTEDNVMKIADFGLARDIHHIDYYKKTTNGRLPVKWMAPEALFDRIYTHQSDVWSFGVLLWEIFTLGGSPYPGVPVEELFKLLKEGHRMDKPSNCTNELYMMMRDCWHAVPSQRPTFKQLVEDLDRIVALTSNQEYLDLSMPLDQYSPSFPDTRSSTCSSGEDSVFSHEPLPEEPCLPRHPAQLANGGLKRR
# Sequence of Cytochrome P450 1A2 (P05177 whole entry): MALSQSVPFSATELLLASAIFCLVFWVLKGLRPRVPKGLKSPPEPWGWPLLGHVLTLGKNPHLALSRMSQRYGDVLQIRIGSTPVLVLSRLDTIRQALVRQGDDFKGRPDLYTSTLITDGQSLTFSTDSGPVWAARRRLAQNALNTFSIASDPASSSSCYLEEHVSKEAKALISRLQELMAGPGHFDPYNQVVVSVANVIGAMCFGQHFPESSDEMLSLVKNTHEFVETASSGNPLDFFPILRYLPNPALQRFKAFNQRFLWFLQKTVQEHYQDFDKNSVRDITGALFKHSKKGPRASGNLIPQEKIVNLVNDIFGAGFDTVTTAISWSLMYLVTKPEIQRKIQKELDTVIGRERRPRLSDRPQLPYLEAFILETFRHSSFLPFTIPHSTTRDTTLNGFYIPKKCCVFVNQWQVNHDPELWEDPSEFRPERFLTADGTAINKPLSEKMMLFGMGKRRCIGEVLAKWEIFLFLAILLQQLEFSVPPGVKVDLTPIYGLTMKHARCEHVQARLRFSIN
# Sequence of Cytochrome P450 2C9 (P11712 whole entry): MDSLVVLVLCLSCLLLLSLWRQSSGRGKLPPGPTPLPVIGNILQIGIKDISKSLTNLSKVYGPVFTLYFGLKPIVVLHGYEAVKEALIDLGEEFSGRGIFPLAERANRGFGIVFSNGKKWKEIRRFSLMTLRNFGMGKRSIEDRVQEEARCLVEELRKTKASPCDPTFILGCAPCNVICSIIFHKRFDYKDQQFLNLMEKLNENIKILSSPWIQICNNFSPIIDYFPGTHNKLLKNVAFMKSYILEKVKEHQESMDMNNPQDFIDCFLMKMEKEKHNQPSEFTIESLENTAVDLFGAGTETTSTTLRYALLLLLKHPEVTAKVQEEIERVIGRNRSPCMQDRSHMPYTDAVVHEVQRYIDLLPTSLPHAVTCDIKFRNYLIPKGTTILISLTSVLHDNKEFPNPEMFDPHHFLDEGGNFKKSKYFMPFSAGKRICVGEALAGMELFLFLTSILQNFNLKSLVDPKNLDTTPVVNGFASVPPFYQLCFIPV
# Sequence of MAP kinase-activated protein kinase 2 (P49137 whole entry): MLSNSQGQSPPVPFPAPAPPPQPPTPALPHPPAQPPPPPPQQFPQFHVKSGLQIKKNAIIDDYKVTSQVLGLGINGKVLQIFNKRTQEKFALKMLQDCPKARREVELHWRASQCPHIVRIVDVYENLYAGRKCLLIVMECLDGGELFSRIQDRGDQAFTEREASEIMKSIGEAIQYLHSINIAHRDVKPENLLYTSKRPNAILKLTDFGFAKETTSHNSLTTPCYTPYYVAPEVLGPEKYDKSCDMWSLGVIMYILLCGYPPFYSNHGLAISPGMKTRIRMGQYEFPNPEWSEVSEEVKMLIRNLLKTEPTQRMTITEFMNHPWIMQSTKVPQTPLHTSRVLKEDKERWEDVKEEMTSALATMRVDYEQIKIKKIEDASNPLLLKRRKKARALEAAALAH
# Sequence of RAC-alpha serine/threonine-protein kinase (P31749 whole entry): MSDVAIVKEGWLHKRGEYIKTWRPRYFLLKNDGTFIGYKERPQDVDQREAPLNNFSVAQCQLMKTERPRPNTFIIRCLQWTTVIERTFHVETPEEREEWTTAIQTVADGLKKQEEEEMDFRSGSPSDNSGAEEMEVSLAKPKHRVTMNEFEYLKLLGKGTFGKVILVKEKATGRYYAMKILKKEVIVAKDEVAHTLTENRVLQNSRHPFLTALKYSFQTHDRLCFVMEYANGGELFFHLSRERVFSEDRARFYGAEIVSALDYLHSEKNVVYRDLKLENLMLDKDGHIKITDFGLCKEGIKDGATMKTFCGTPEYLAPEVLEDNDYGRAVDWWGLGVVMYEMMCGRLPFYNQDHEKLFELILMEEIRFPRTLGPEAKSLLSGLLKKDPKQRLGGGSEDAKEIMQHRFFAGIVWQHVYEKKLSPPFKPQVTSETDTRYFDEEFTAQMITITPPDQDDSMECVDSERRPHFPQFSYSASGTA
smiles,measurement,setting,value
Cc1cc(C2CCN(C)CC2)cc2[nH]c(-c3c(NC[C@@H](O)c4cccc(Cl)c4)cc[nH]c3=O)nc12,pIC50,[1],7.07
same,pIC50,Cytochrome P450 3A4,4.85
same,EC20,[2],> 50 µM
same,AUC at 4 h,[3],1.2 µM·h
COCCN1CCC(c2cc(C)c3nc(-c4c(NC[C@@H](O)c5cccc(Cl)c5)cc[nH]c4=O)[nH]c3c2)CC1,pIC50,[1],6.66
same,pIC50,Cytochrome P450 3A4,4.96
same,EC20,[2],> 50 µM
Cc1cc(C2CCN(CCCF)CC2)cc2[nH]c(-c3c(NCCn4cc(Cl)cn4)cc[nH]c3=O)nc12,Activity,Mus musculus [4],inactive
same,Activity,Mus musculus [5],inactive
same,inhibition in vivo at 50 mg/kg,[6],81%
same,pIC50,[7],6.43
same,pIC50,[1],6.73
same,pIC50,[8],7.47
same,pIC50,Cytochrome P450 3A4,4.59
same,EC20,[2],> 50 µM
same,AUC at 4 h,[3],3.7 µM·h
same,fraction unbound at 10 µM,[9],0.131
same,bioavailability,[10],> 100%
same,Cmax,[11],2300 nM
same,clearance,[12],159 mL/min/kg
same,Vd,[13],18.2 L/kg
same,half-life,[14],2.3 h
same,bioavailability,[15],23%
same,Cmax,[16],200 nM
same,clearance,[17],76 mL/min/kg
same,Vd,[18],20 L/kg
same,half-life,[19],4 h
same,bioavailability,[20],35%
same,Cmax,[21],270 nM
same,clearance,[22],23 mL/min/kg
same,Vd,[23],21 L/kg
same,half-life,[24],10.5 h
same,bioavailability,[25],48%
same,Cmax,[26],400 nM
same,clearance,[27],27 mL/min/kg
same,Vd,[28],17 L/kg
same,half-life,[29],7.3 h
same,pIC50,[30],7.14
same,pIC50,[31],4.96
same,pIC50,[32],4.69
same,pIC50,[33],4.42
same,pIC50,[34],< 4.00
same,pIC50,[35],4.32
same,pIC50,[36],4.51
same,pIC50,[37],< 4.30
same,pIC50,[38],6.43
same,pIC50,[39],> 5.30
same,pIC50,[40],4.68
same,pIC50,[41],5.22
same,pIC50,[42],5.40
same,pIC50,[43],5.07
same,IC50,Phosphodiesterase 4,4 µM
same,inhibition in vivo at 100 mg/kg,COLO 205,93%
same,inhibition in vivo at 100 mg/kg,[44],80%
same,inhibition in vivo at 100 mg/kg,[45],73%
same,pIC50,Cytochrome P450 1A2,< 4.40
same,pIC50,Cytochrome P450 2C9,< 4.40
same,pIC50,Cytochrome P450 2C19,4.47
same,pIC50,Cytochrome P450 2D6,< 4.40
same,Papp,[46],10.9 ×10⁻⁶ cm/s
same,solubility,[47],137 µg/mL
same,Activity,Hepatocyte,Non-toxic
same,Activity,Mus musculus [48],inactive
same,pIC50,Focal adhesion kinase 1,6.78
COCCN1CCC(c2cc(C)c3nc(-c4c(NC[C@@H](O)c5ccc(OC)c(Cl)c5)cc[nH]c4=O)[nH]c3c2)CC1,pIC50,[1],7.89
same,pIC50,Cytochrome P450 3A4,5.11
same,EC20,[2],> 50 µM
same,AUC at 4 h,[3],0.49 µM·h
Cc1cc(C2CCN(CCO)CC2)cc2[nH]c(-c3c(NCCn4cc(Cl)cn4)cc[nH]c3=O)nc12,pIC50,[1],6.62
same,pIC50,Cytochrome P450 3A4,4.64
same,EC20,[2],> 50 µM
same,AUC at 4 h,[3],0.1 µM·h
